Data as given in patent US20170369444A1, “INHIBITORS OF HISTONE DEMETHYLASES” (Gilead Sciences, Inc., priority 2014, published 2017).

Columns and labels:
Type in all cases: biochemical
PHF8 (KDM7) = PHF8 (KDM7) (Homo sapiens, UniProt Q9UPP1); assay: Histone lysine demethylase AlphaLISA assay, PHF8; settings: in vitro enzyme, read-out: PHF8 IC50 (HDME Inhibition)
Protocol: (§1) Histone lysine demethylase AlphaLISA assays are performed to determine IC50 values. […] Assays are performed analogously to the protocol described by PerkinElmer (Roy et al. PerkinElmer Technical Note: AlphaLISA #12, April 2011).
(§2) Assays are performed analogously to the protocol described by PerkinElmer (Roy et al. PerkinElmer Technical Note: AlphaLISA #12, April 2011).
(§3) Enzymes (final assay concentration 0.1-2.5 nM) are dissolved in enzyme buffer and incubated for 10 min before 5 μL is added to 5 μL 3% DMSO solutions of compounds in enzyme buffer, incubated for another 10 minutes, before 5 μL substrate solution is added and the reaction mixture is incubated at room temperature. 10 μL acceptor beads, suspended Epigenetic Buffer (Perkin Elmer AL008) from stock, are added and the suspension is incubated in the dark at room temperature, before 10 μL suspension of streptavidin donor beads (Perkin Elmer 6760002) in Epigenetic Buffer is added. After incubation at room temperature in the dark the plates are read.
(§4) Substrate solution: Substrate (final assay concentration 50-200 nM), 50 mM Hepes (pH 7.4-8.0), 0.003% Tween-20, 0.1% BS, 25 μM L-Asc, 10 μM α-KG. Enzyme Buffer: 50 mM Hepes (pH 7.4-8.0), 0.003% Tween-20, 0.1% BSA; 5 μM (NH4)2Fe(SO4)2

KDM5B (PLU-1) = target: T1, KDM5B (PLU-1) (Homo sapiens, UniProt Q9UGL1); assay: Histone lysine demethylase AlphaLISA assay, KDM5B; settings: in vitro enzyme, read-out: KDM5B IC50 (HDME Inhibition)
T1 construct: 1-809; host or cells: E. coli
T1 sequence (Q9UGL1 1-809): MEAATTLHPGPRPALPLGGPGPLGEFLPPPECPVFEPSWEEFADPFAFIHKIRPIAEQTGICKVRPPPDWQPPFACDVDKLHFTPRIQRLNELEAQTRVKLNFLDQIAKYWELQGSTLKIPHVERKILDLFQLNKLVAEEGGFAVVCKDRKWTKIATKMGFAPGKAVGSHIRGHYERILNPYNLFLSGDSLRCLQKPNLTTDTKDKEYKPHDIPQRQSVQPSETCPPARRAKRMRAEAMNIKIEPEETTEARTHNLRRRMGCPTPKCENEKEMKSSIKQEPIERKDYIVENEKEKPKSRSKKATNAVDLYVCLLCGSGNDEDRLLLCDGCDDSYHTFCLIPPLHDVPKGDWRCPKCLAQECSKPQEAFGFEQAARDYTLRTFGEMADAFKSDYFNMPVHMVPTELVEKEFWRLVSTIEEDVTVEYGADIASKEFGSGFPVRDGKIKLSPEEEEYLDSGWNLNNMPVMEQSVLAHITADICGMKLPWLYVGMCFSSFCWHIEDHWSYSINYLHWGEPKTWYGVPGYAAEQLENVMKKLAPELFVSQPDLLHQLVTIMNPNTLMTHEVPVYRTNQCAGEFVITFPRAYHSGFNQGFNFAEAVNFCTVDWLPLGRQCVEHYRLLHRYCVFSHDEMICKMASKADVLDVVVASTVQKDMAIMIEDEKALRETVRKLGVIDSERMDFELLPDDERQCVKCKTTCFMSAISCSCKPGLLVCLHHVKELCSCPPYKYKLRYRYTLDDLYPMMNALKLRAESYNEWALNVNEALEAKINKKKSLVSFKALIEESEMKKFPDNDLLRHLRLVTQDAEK
Protocol: as §1, §2, §3, §4

KDM6A (UTX) = target: T2, KDM6A (UTX) (Homo sapiens, UniProt O15550); assay: Histone lysine demethylase AlphaLISA assay, KDM6A; settings: in vitro enzyme, read-out: KDM6A IC50 (HDME Inhibition)
T2 construct: 919-1401; host or cells: E. coli
Protocol: as §1, §2, §3, §4

KDM2B (FBXL10) = target: T3, KDM2B (FBXL10) (Homo sapiens, UniProt Q8NHM5); assay: Histone lysine demethylase AlphaLISA assay, KDM2B; settings: in vitro enzyme, read-out: KDM2B IC50 (HDME Inhibition)
T3 construct: 1-650; purchased BPS Bioscience, US; host or cells: Bac (baculovirus/insect cells)
T3 sequence (Q8NHM5 1-650): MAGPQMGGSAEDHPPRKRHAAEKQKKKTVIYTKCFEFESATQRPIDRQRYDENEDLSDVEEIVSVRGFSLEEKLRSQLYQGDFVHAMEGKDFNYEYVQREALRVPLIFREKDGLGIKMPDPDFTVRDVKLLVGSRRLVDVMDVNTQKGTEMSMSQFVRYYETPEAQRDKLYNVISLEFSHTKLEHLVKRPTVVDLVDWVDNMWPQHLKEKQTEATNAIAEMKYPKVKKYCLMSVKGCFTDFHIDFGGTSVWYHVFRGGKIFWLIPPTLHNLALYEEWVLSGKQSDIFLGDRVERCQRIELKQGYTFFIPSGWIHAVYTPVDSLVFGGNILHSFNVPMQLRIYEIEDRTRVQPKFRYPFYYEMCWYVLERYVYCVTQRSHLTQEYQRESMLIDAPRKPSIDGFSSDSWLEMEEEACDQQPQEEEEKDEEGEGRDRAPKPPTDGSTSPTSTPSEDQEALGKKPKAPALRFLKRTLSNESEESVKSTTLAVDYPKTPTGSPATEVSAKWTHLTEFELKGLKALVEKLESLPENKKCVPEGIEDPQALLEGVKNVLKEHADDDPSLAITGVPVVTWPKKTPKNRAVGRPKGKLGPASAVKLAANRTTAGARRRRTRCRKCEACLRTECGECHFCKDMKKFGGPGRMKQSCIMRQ
Protocol: as §1, §2, §3, §4

Chain of PHF8 (KDM7) (Q9UPP1 whole entry): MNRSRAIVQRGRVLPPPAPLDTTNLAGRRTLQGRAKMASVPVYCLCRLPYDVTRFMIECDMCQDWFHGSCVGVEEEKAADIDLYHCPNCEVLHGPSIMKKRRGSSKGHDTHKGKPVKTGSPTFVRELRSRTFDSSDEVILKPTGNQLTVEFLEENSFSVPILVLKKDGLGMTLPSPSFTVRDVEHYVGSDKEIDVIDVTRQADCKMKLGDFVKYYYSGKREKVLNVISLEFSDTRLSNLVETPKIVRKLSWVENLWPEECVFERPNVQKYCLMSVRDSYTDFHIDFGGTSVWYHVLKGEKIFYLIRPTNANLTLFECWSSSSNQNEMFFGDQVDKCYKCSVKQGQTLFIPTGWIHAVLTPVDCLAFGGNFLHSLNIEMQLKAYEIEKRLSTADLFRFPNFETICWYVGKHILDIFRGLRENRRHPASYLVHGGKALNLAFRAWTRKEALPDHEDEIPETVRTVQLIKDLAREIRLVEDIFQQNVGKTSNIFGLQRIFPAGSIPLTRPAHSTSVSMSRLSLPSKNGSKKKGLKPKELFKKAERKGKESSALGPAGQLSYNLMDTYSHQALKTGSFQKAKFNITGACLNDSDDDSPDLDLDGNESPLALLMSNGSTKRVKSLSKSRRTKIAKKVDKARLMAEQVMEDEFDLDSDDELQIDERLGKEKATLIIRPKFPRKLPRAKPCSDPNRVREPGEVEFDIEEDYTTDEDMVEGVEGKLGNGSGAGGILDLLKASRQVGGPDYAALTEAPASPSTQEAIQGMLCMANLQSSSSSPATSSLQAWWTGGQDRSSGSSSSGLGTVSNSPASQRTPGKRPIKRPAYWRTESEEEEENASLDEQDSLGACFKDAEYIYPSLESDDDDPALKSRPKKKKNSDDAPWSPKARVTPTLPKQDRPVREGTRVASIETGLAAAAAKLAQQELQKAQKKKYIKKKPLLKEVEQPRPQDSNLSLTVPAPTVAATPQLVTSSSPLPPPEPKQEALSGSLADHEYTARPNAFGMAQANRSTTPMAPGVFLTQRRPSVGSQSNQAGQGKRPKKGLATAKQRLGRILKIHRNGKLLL
T2 sequence (O15550 919-1401): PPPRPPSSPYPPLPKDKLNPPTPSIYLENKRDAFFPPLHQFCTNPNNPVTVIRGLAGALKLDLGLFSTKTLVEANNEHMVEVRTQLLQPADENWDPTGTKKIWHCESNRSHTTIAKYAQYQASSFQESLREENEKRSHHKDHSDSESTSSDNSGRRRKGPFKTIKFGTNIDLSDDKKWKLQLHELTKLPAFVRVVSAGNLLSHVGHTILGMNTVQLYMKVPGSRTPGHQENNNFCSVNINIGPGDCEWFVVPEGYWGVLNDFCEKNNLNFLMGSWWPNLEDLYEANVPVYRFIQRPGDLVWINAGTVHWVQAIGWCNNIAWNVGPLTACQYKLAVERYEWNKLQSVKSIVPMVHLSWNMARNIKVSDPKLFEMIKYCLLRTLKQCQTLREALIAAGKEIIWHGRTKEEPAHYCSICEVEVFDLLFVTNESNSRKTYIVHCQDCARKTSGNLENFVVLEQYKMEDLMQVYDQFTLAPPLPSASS

Row | SMILES | IC50 (PHF8 (KDM7)) | IC50 (KDM5B (PLU-1)) | IC50 (KDM6A (UTX)) | IC50 (KDM2B (FBXL10))
1 | C=CCN(CC=C)C(=O)[C@@H](CCCCNCCC)NCc1cc(C(=O)O)ccn1 [Compound 3, 2-({[(1R)-1-[bis(prop-2-en-1-yl)carbamoyl]-5-(propylamino)pentyl]amino}methyl)pyridine-4-carboxylic acid] | 250 to 2500 nM | > 2500 nM | – | –
2 | CC(N[C@@H](C)C(=O)NCc1ccccc1[N+](=O)[O-])c1cc(C(=O)O)ccn1 (stereo partly drawn) [Compound 8, 2-(1-{[(1S)-1-{[(2-nitrophenyl)methyl]carbamoyl}ethyl]amino}ethyl)pyridine-4-carboxylic acid] | > 2500 nM | > 2500 nM | > 2500 nM | –
3 | C=CCN(CC=C)C(=O)[C@H](CCCCNC(=O)NC(C)(C)C)NCc1cc(C(=O)O)ccn1 [Compound 9, 2-({[(1S)-1-[bis(prop-2-en-1-yl)carbamoyl]-5-[(tert-butylcarbamoyl)amino]pentyl]amino}methyl) pyridine-4-carboxylic acid] | > 2500 nM | 250 to 2500 nM | > 2500 nM | –
4 | C=CCN(CC=C)C(=O)[C@H](CC(=O)NCC1(CO)CC1)NCc1cc(C(=O)O)ccn1 [Compound 11, 2-({[(1S)-1-[bis(prop-2-en-1-yl)carbamoyl]-2-({[1-(hydroxymethyl)cyclo-propyl]methyl}carba-moyl)ethyl]amino}methyl)pyridine-4-carboxylic acid] | – | 250 to 2500 nM | – | 250 to 2500 nM
5 | C=CCN(CC=C)C(=O)[C@H](CCCCN(C)C(=O)NC)NCc1cc(C(=O)O)ccn1 [Compound 20, 2-({[(1S)-1-[bis(prop-2-en-1-yl)carbamoyl]-5-[methyl(methylcarba-moyl)amino]pentyl]amino}methyl)pyridine-4-carboxylic acid] | > 2500 nM | 250 to 2500 nM | > 2500 nM | –
6 | O=C(O)c1ccnc(CNCC(=O)N2CCCCC2)n1 [Compound 23, 2-({[2-oxo-2-(piperidin-1-yl)ethyl]amino}methyl) pyrimidine-4-carboxylic acid] | – | > 2500 nM | – | 250 to 2500 nM
7 | C=CCN(CC=C)C(=O)[C@H](CCS(C)(=O)=O)NCc1cc(C(=O)O)ccn1 [Compound 29, 2-({[(1S)-1-[bis(prop-2-en-1-yl)carbamoyl]-3-methanesulfonylpropyl]amino}methyl)pyridine-4-carboxylic acid] | > 2500 nM | > 2500 nM | – | –
8 | CC(N[C@H](C)c1nccs1)c1cc(C(=O)O)ccn1 (stereo partly drawn) [Compound 30, 2-(1-{[(1R)-1-(1,3-thiazol-2-yl)ethyl]amino}ethyl) pyridine-4-carboxylic acid] | 250 to 2500 nM | > 2500 nM | > 2500 nM | –
9 | C=CCN(CC=C)C(=O)[C@H](CCCCNC(=O)OC(C)(C)C)NCc1cc(C(=O)O)ccn1 [Compound 40, 2-({[(1S)-1-[bis(prop-2-en-1-yl)carbamoyl]-5-{[(tert-butoxy)carbonyl]amino}pentyl]amino}methyl) pyridine-4-carboxylic acid] | – | 250 to 2500 nM | – | 250 to 2500 nM
10 | CCN(CC)C(=O)CCN(CCO)Cc1cc(C(=O)O)ccn1 [Compound 44, 2-({[2-(diethylcarbamoyl)ethyl](2-hydroxyethyl)amino}methyl)pyridine-4-carboxylic acid] | – | < 250 nM | – | 250 to 2500 nM
11 | CC(c1cc(C(=O)O)ccn1)N(C)CC(=O)N1CCCCC1 (stereo not drawn) [Compound 47, 2-(1-{methyl[2-oxo-2-(piperidin-1-yl)ethyl]amino}ethyl) pyridine-4-carboxylic acid] | – | > 2500 nM | – | 250 to 2500 nM
12 | O=C(O)c1ccnc(CN2CCC[C@H]2C(=O)N2CCCCC2)c1 [Compound 55, 2-{[(2S)-2-(piperidine-1-carbonyl)pyrrolidin-1-yl]methyl}pyridine-4-carboxylic acid] | > 2500 nM | > 2500 nM | – | –
13 | O=C(O)c1ccnc(CN2CCC[C@@H]2C(=O)N2CCCCC2)c1 [Compound 56, 2-{[(2R)-2-(piperidine-1-carbonyl)pyrrolidin-1-yl]methyl}pyridine-4-carboxylic acid] | 250 to 2500 nM | > 2500 nM | – | –
14 | O=C(O)c1ccnc(CN2CCC[C@@H]2CO)c1 [Compound 57, 2-{[(2R)-2-(hydroxymethyl)pyrrolidin-1-yl]methyl}pyridine-4-carboxylic acid] | < 250 nM | < 250 nM | – | –
15 | O=C(O)c1ccnc(CN2CCC[C@H]2CO)c1 [Compound 58, 2-{[(2S)-2-(hydroxymethyl)pyrrolidin-1-yl]methyl}pyridine-4-carboxylic acid] | 250 to 2500 nM | < 250 nM | – | –
16 | O=C(O)c1ccnc(CN2CC[C@H]2CO)c1 [Compound 64, 2-{[(2S)-2-(hydroxymethyl)azetidin-1-yl]methyl}pyridine-4-carboxylic acid] | > 2500 nM | 250 to 2500 nM | > 2500 nM | –
17 | CC[C@H]1CCN(Cc2cc(C(=O)O)ccn2)[C@@H]1CO [Compound 65, 2-{[(2S,3S)-3-ethyl-2-(hydroxymethyl)pyrrolidin-1-yl]methyl}pyridine-4-carboxylic acid] | > 2500 nM | > 2500 nM | > 2500 nM | –
18 | CCNC(=O)C1CCCN(Cc2cc(C(=O)O)ccn2)C1 (stereo not drawn) [Compound 74, 2-{[3-(ethylcarbamoyl)piper-idin-1-yl]methyl}pyridine-4-carboxylic acid] | > 2500 nM | 250 to 2500 nM | > 2500 nM | –
19 | CCNC(=O)C1CCN(Cc2cc(C(=O)O)ccn2)C1 (stereo not drawn) [Compound 76, 2-{[3-(ethylcarbamoyl)pyrrolidin-1-yl]methyl}pyridine-4-carboxylic acid] | 250 to 2500 nM | 250 to 2500 nM | > 2500 nM | –
20 | CCNC(=O)C[C@@H]1CCN(Cc2cc(C(=O)O)ccn2)C1 [Compound 77, 2-{[(3S)-3-[(ethylcarbamoyl)methyl]pyrrolidin-1-yl]methyl}pyridine-4-carboxylic acid] | 250 to 2500 nM | 250 to 2500 nM | > 2500 nM | –
21 | O=C(O)c1ccnc(CNCc2cn(Cc3ccc(F)cc3)c3ncccc23)c1 [Compound 83, 2-[({[1-(4-fluorobenzyl)-1H-pyrrolo[2,3-b]pyridin-3-yl]methyl}amino)methyl]pyridine-4-carboxylic acid] | < 250 nM | 250 to 2500 nM | > 2500 nM | –
22 | O=C(O)c1ccnc(CNCc2cccnc2)c1 [Compound 84, 2-{[(pyridin-3-ylmethyl)amino]methyl}pyridine-4-carboxylic acid] | < 250 nM | < 250 nM | > 2500 nM | –
23 | CC(C)C[C@@H](COCc1ccccc1)NCc1cc(C(=O)O)ncn1 [Compound 89, 6-({[(2S)-1-(benzyloxy)-4-methylpentan-2-yl]amino}methyl) pyrimidine-4-carboxylic acid] | 250 to 2500 nM | – | > 2500 nM | –
